According to patent publication US10561681B2, “Antimetastatic 2H-selenopheno[3,2-h]chromenes, synthesis thereof, and methods of using same agents” (Latvian Institute of Organic Synthesis, priority 2016, dated 2020):
Where “and” joins values, the source holds several entries; their conditions need not be identical. Identical values can stand only once. Marks after values point to notes of the source that are not given here.

Experiments:
[1] = test system: A549 (human lung carcinoma); assay: In vitro cytotoxicity, MTT test; type: cell-based; conditions: Homo sapiens, A549, 72 h, MTT, 72 h; read-out: Cytotoxicity IC50, A549
Protocol: (§1) Anticancer activity of selenopheno[h]chromenes was tested in vitro using cytotoxicity assay. […] About 2-9·10^4 cells/mL (depending on line nature) were placed in 96-well plates immediately after compounds were added to the wells. Untreated cells were used as a control. The plates were incubated for 72 h, 37° C., 5% CO2. The number of surviving cells was determined using 3-(4,5-dimethylthiazol-2-yl)-2,5-diphenyltetrazolinium bromide (MTT). MTT-test: after incubating culture medium was removed and 200 μL fresh medium with 10 mM HEPES was added in each well of the plate, than 20 μL MTT (2 mg/mL in HBSS) was added. After incubation (3 hr, 37° C., 5% CO2), the medium with MTT was removed and 200 μL DMSO were added at once to each sample. The samples were tested at 540 nm on Anthos HT II photometer.

CCL-8 (mouse sarcoma) = assay: In vitro cytotoxicity, MTT test; type: cell-based; conditions: MTT, 72 h, read-out: Cytotoxicity IC50, CCL-8
Protocol: as §1

[2] = test system: HT-1080 (human fibrosarcoma); assay: In vitro cytotoxicity, MTT test; type: cell-based; conditions: HT-1080, MTT, 72 h, read-out: Cytotoxicity IC50, HT-1080
Protocol: as §1

[3] = test system: HepG2 (human hepatocellular carcinoma); assay: In vitro cytotoxicity, MTT test; type: cell-based; conditions: HepG2, MTT, 72 h, read-out: Cytotoxicity IC50, HepG2
Protocol: as §1

[4] = test system: MCF-7 (human breast adenocarcinoma, estrogen-positive); assay: In vitro cytotoxicity, MTT test; type: cell-based; conditions: MCF7, MTT, 72 h, read-out: Cytotoxicity IC50, MCF-7
Protocol: as §1

[5] = test system: MDA-MB-435s (human melanoma); assay: In vitro cytotoxicity, MTT test; type: cell-based; conditions: MTT, 72 h, read-out: Cytotoxicity IC50, MDA-MB-435s
Protocol: as §1

[6] = test system: MES-SA (human uterus sarcoma); assay: In vitro cytotoxicity, MTT test; type: cell-based; conditions: MTT, 72 h, read-out: Cytotoxicity IC50, MES-SA
Protocol: as §1

MG-22A (mouse hepatoma) = assay: In vitro cytotoxicity, MTT test; type: cell-based; conditions: MTT, 72 h, read-out: Cytotoxicity IC50, MG-22A
Protocol: as §1

[7] = test system: SH-SY5Y (human neuroblastoma); assay: In vitro cytotoxicity, MTT test; type: cell-based; conditions: Homo sapiens, SH-SY5Y, 72 h, MTT, read-out: Cytotoxicity IC50, SHSY5Y
Protocol: as §1

[8] = Basal cytotoxicity test, Neutral Red Uptake (NRU) assay; type: cell-based
Protocol: (§2) In parallel, the borderline concentration relevant to the highest tolerated dose has been determined for each compound using the NIH 3T3 (mouse embryo fibroblasts) cell line and the basal cytotoxicity obtained has then been used to predict the starting doses for in vivo acute oral LD50 values in rodents.
(§3) the Neutral Red Uptake (NRU) assay was performed according to the standard protocol of Stokes modified by the NICEATM-ECVAM validation study. The NRU cytotoxicity assay procedure is based on the ability of viable cells to incorporate and bind Neutral Red, a supravitally dye. Balb/c 3T3 (Mouse Swiss Albino embryo fibroblast) cells (9000 cells/well) were placed into 96-well plates for 24 h in Dulbecco's modified Eagle's (DMEM) medium containing 5% fetal bovine serum. The cells were then exposed to the test compounds over a range of […] concentrations (1000, 316, 100, 31, 10, 3, 1 μg/ml) for 24 h. Untreated cells were used as a control. After 24 h, the medium was removed from all plates. Then, 250 μL of Neutral Red solution were added (0.05 mg/mL NR in DMEM 24 h pre-incubated at 37° C. and then filtered before use through 0.22-μm syringe filter). Plates were incubated for 3 h and then cells were washed three times with PBS. The dye within viable cells was released by extraction with a mixture of acetic acid, ethanol and water (1:50:49). Absorbance of Neutral Red was measured using a spectrophotometer multiplate reader (TECAN, Infinite M1000) at 540 nm. The percentage of living cells was calculated using the formula: OD (treated cells)*100/OD (control cells). The IC50 values were calculated using the programme Graph Pad Prism® 3.0.
(§4) Data from the in vitro tests were used for estimating the starting dose for acute oral systemic toxicity tests in rodents. […] The value is recalculated to mg/kg and compounds are evaluated in accordance with four toxicity categories: category 1: LD50≤5 mg/kg (highly toxic); category 2: 5<LD50≤50 mg/kg (moderately toxic); category 3: 50<LD50≤300 mg/kg (slightly toxic); category 4: 300<LD50≤2 000 mg/kg (practically non-toxic).

[9] = test system: 3T3 (mouse embryo fibroblasts); assay: as above; type: cell-based
Protocol: as §2, §3, §4

[10] = test system: mouse sarcoma CCRF-S180 II (CCL-8); assay: Mouse non-metastatic cancer model, sarcoma CCL-8 s.c. in ICR mice; type: in vivo; conditions: s.c. Day 1, 2, 3, 4, 7, 8, 9, 10, 11; dose 5 mg/kg, total dose 45 mg/kg
Protocol: Six-week-old female ICR and BALB/c mice were purchased from the University of Tartu Laboratory Animal Centre (Estonia). The mice were housed five to a cage, and under standard conditions (21-23° C., 12 h light: dark cycle), fed ad libitum (R3 diet, Lactamin AB, Kimstad, Sweden) and observed daily. The experimental procedures involving experimental animals were carried out in accordance with the guidelines of the European Community, local laws and policies, and were approved by the Latvian Animal Protection Ethical Committee, the Food and Veterinary Service, Riga, Latvia.
In vivo studies were performed utilizing the mouse sarcoma CCRF-S180 II (CCL-8) and Lewis lung carcinoma (LLC) cell line. All cell lines were purchased from ATCC. The cells were grown in Dulbecco's modified Eagle's medium (Sigma) supplemented with 10% fetal calf serum (Sigma).
ICR mice were subcutaneously inoculated in the back with 5×10^6 CCL-8 cells and BALB/c mice were inoculated with 1×10^6 LLC (Lewis Lung Carcinoma) cells, which were suspended in 0.1 mL of PBS on day zero of the study. The compounds dissolved in DMSO and then in 0.1 mL water (DMSO final concentration 1%) were injected s.c. Mice in the untreated group were similarly given doses of 0.1 mL of water with DMSO. Tumor volume (tumor volume V=[…], a is maximal and b the minimal tumor diameter) was recorded twice per week. The mice were examined every other day for diseases including appearance, weight and behavior. The mice were sacrificed at day 16 of the experiment by decapitation after ketamine/xylazine anesthesia.

malignant tumor cells = assay: In vitro cytotoxicity on monolayer tumor cell lines (panel, summary in words); type: cell-based; conditions: summary of Table 1
Protocol: Anticancer activity of selenopheno[h]chromenes was tested in vitro using cytotoxicity assay. Thus, monolayer tumor cell lines MDA-MB-435s (human melanoma), MCF-7 (human breast adenocarcinoma, estrogen-positive), MES-SA (human uterus sarcoma), HT-1080 (human fibrosarcoma), A549 (human lung carcinoma), SH-SY5Y (human neuroblastoma), CCL-8 (mouse sarcoma), MG-22A (mouse hepatoma), and HepG2 (human hepatocellular carcinoma) were cultured in standard medium DMEM (Dulbecco's modified Eagle's medium) (“Sigma”) supplemented with 10% fetal bovine serum (“Sigma”). About 2-9·10^4 cells/mL (depending on line nature) were placed in 96-well plates immediately after compounds were added to the wells. Untreated cells were used as a control. The plates were incubated for 72 h, 37° C., 5% CO2. The number of surviving cells was determined using 3-(4,5-dimethylthiazol-2-yl)-2,5-diphenyltetrazolinium bromide (MTT). MTT-test: after incubating culture medium was removed and 200 μL fresh medium with 10 mM HEPES was added in each well of the plate, than 20 μL MTT (2 mg/mL in HBSS) was added. After incubation (3 hr, 37° C., 5% CO2), the medium with MTT was removed and 200 μL DMSO were added at once to each sample. The samples were tested at 540 nm on Anthos HT II photometer.

In the case of `COC(=O)c1cc2ccc3c(Br)c(CN4CCOCC4)[se]c3c2oc1=O` [Compound I-9, Methyl 7-bromo-8-(morpholinomethyl)-2-oxo-2H-selenopheno[3,2-h]chromene-3-carboxylate], the IC50 [1] is reported as 86 ± 6 µM, the IC50 (CCL-8 (mouse sarcoma)) is reported as 84 ± 6 µM and the IC50 [2] is reported as 86 ± 6 µM. For the same compound, the IC50 [3] was 90 ± 6 µM, the IC50 [4] was 81 ± 6 µM and the IC50 [5] was 67 ± 8 µM. For the same compound, the IC50 [6] was 54 ± 7 µM, the IC50 (MG-22A (mouse hepatoma)) was 48 ± 3 µM and the IC50 [7] was 46 ± 9 µM. The LD50 at 24 h ([8]; mouse, po, acute oral LD50 calculated from 3T3 NRU IC50 by regression formula, read-out: Basal cytotoxicity Estimated* LD50) was 2400 µmol/kg and 1250 mg/kg, the IC50 at 24 h ([8]; normal mouse embryo fibroblasts, read-out: Cytotoxicity IC50, 3T3) was 56 ± 3 µM and the “Toxicity against normal NIH 3T3 cells” value [9] was “the most toxic among studied chromenes”. For the same compound, the “Anticancer activity in vivo (inhibition, %), CCL-8 tumor volume” value [10] was 38** % and the “Cytotoxicity on cancer cell lines” value (malignant tumor cells) was “medium cytotoxicity”.
